Assay results reported in PubChem BioAssay AID248 (DTP/NCI, 2004).
Several values for one entry are separate records, joined by “and”; a condition that tells them apart may be missing. Equal entries are not always repeated. Inconclusive results and toxic doses are left out. No stated cut-off is given here; in the data, active means T/C of 150% or more; inactive means T/C below 125%.

System: L1210 leukemia ip in BDF1 mice, survival T/C
Experiment: NCI In Vivo Anticancer Drug Screen. Data for tumor model L1210 Leukemia (intraperitoneal) in B6D2F1 (BDF1) mice
Conditions: higher = longer survival
Procedure, shortened: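 Ratio derived from survival: compound-dosed mice over vehicle-dosed mice, all bearing a transplantable tumor.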

[1] = endpoint: mean survival time, dose: 50.0 mg/kg/injection, schedule: Q01DX009 (ip), vehicle: saline with Tween-80
[2] = endpoint: mean survival time, dose: 100.0 mg/kg/injection, schedule: Q01DX009 (ip), vehicle: saline with Tween-80
[3] = endpoint: mean survival time, dose: 200.0 mg/kg/injection, schedule: Q01DX009 (ip), vehicle: saline with Tween-80
[4] = endpoint: mean survival time, dose: 100.0 mg/kg/injection, schedule: Q01DX001 (ip), vehicle: carboxymethylcellulose (CMC)
[5] = endpoint: mean survival time, dose: 200.0 mg/kg/injection, schedule: Q01DX001 (ip), vehicle: carboxymethylcellulose (CMC)
[6] = endpoint: mean survival time, dose: 400.0 mg/kg/injection, schedule: Q01DX001 (ip), vehicle: carboxymethylcellulose (CMC)
[7] = endpoint: mean survival time, dose: 100.0 mg/kg/injection, schedule: Q01DX001 (ip), vehicle: saline
[8] = endpoint: mean survival time, dose: 100.0 mg/kg/injection, schedule: Q01DX009 (ip), vehicle: Klucel (hydroxypropylcellulose) (HPC)
[9] = endpoint: mean survival time, dose: 100.0 mg/kg/injection, schedule: Q04DX003 (ip), vehicle: Klucel (hydroxypropylcellulose) (HPC)
[10] = endpoint: mean survival time, dose: 200.0 mg/kg/injection, schedule: Q01DX009 (ip), vehicle: Klucel (hydroxypropylcellulose) (HPC)
[11] = endpoint: mean survival time, dose: 400.0 mg/kg/injection, schedule: Q01DX001 (ip), vehicle: saline
[12] = endpoint: mean survival time, dose: 400.0 mg/kg/injection, schedule: Q01DX009 (ip), vehicle: Klucel (hydroxypropylcellulose) (HPC)

Measured: T/C

NC1=NN(c2ccccc2)C(=O)/C1=C\c1ccccc1
inactive: [1] 102 % of control | [2] 98 % of control | [3] 91 % of control

CCCOc1ccc(C(=O)C(=O)c2ccccc2)cc1
inactive: [4] 97 % of control | [5] 100 % of control | [6] 97 % of control

S=P(c1ccccc1)(N1CCN(c2ccc(Cl)cc2)CC1)N1CCN(c2ccc(Cl)cc2)CC1
inactive: [7] 88 % of control | [8] 102 % of control | [9] 95 % of control | [10] 91 % of control | [11] 90 % of control | [12] 93 % of control | endpoint: mean survival time, dose: 400.0 mg/kg/injection, schedule: Q04DX003 (ip), vehicle: Klucel (hydroxypropylcellulose) (HPC) 92 % of control

O=C(Nc1ccccc1C(F)(F)F)N(Cc1ccccc1)Cc1ccccc1
inactive: [8] 101 % of control | [10] 87 % of control | [12] 95 % of control

O=C(C[n+]1ccccc1)c1cn(Cc2ccccc2)c2ccccc12
inactive: endpoint: mean survival time, dose: 75.0 mg/kg/injection, schedule: Q01DX001 (ip), vehicle: other 98 % of control | endpoint: mean survival time, dose: 150.0 mg/kg/injection, schedule: Q01DX001 (ip), vehicle: other 97 % of control

CC1OC(OC2CC(O)C3(CO)C4C(O)CC5(C)C(C6=CC(=O)OC6)CCC5(O)C4CCC3(O)C2)C(O)C(O)C1O (stereo not given)
inactive: endpoint: mean survival time, dose: 0.5 mg/kg/injection, schedule: Q01DX009 (ip), vehicle: saline 100 % of control | endpoint: mean survival time, dose: 1.0 mg/kg/injection, schedule: Q01DX009 (ip), vehicle: saline 121 % of control | endpoint: mean survival time, dose: 1.25 mg/kg/injection, schedule: Q01DX001 (ip), vehicle: saline 100 % of control | endpoint: mean survival time, dose: 2.0 mg/kg/injection, schedule: Q01DX009 (ip), vehicle: saline 113 % of control | endpoint: mean survival time, dose: 2.5 mg/kg/injection, schedule: Q01DX001 (ip), vehicle: saline 104 % of control | endpoint: mean survival time, dose: 4.0 mg/kg/injection, schedule: Q01DX009 (ip), vehicle: saline 106 % of control | endpoint: mean survival time, dose: 5.0 mg/kg/injection, schedule: Q01DX001 (ip), vehicle: saline 101 % of control | endpoint: mean survival time, dose: 6.25 mg/kg/injection, schedule: Q01DX001 (ip), vehicle: saline 105 % of control | endpoint: mean survival time, dose: 12.5 mg/kg/injection, schedule: Q01DX001 (ip), vehicle: saline 106 % of control | endpoint: median survival time, dose: 1.0 mg/kg/injection, schedule: Q01DX005 (ip), vehicle: water 105 % of control | endpoint: median survival time, dose: 2.0 mg/kg/injection, schedule: Q01DX005 (ip), vehicle: water 104 % of control | endpoint: median survival time, dose: 4.0 mg/kg/injection, schedule: Q01DX005 (ip), vehicle: water 109 % of control

CCC/C=C/CCN1CC1
inactive: endpoint: mean survival time, dose: 20.0 mg/kg/injection, schedule: Q01DX001 (ip), vehicle: saline 97 % of control | endpoint: mean survival time, dose: 40.0 mg/kg/injection, schedule: Q01DX001 (ip), vehicle: saline 97 % of control | [7] 86 % of control

Cc1ccnc(NS(=O)(=O)c2ccc(N=[N+]=[N-])cc2)n1
inactive: endpoint: mean survival time, dose: 100.0 mg/kg/injection, schedule: Q01DX009 (ip), vehicle: carboxymethylcellulose (CMC) 92 % of control and 91 % of control | endpoint: mean survival time, dose: 100.0 mg/kg/injection, schedule: Q04DX002 (ip), vehicle: carboxymethylcellulose (CMC) 98 % of control | endpoint: mean survival time, dose: 200.0 mg/kg/injection, schedule: Q01DX009 (ip), vehicle: carboxymethylcellulose (CMC) 95 % of control | endpoint: mean survival time, dose: 200.0 mg/kg/injection, schedule: Q04DX002 (ip), vehicle: carboxymethylcellulose (CMC) 93 % of control and 98 % of control | endpoint: mean survival time, dose: 400.0 mg/kg/injection, schedule: Q01DX009 (ip), vehicle: carboxymethylcellulose (CMC) 97 % of control and 102 % of control | endpoint: mean survival time, dose: 400.0 mg/kg/injection, schedule: Q04DX002 (ip), vehicle: carboxymethylcellulose (CMC) 101 % of control and 105 % of control

COc1cc2c(cc1OC)C1C(O)C(OC)C=C3CCN(C2)C31 (stereo not given)
inactive: [7] 100 % of control | endpoint: mean survival time, dose: 200.0 mg/kg/injection, schedule: Q01DX001 (ip), vehicle: saline 97 % of control | [11] 103 % of control

CCCCN(CCCC)CCP(=O)(OCC)OCC
inactive: endpoint: mean survival time, dose: 100.0 mg/kg/injection, schedule: Q04DX002 (ip), vehicle: saline with Tween-80 97 % of control | endpoint: mean survival time, dose: 200.0 mg/kg/injection, schedule: Q04DX002 (ip), vehicle: saline with Tween-80 105 % of control

O=C(O)CCCCc1ccc(CCCCC(=O)O)cc1
inactive: [1] 96 % of control | [2] 106 % of control | [9] 97 % of control | endpoint: mean survival time, dose: 200.0 mg/kg/injection, schedule: Q04DX003 (ip), vehicle: Klucel (hydroxypropylcellulose) (HPC) 104 % of control

COc1ccc(-c2cc(C(=O)O)c3ccc(C)cc3n2)cc1
inactive: [2] 103 % of control | [3] 95 % of control | endpoint: mean survival time, dose: 400.0 mg/kg/injection, schedule: Q01DX009 (ip), vehicle: saline with Tween-80 96 % of control

NCCNCCN1CC1
inactive: endpoint: mean survival time, dose: 10.0 mg/kg/injection, schedule: Q04DX002 (ip), vehicle: saline 104 % of control | endpoint: mean survival time, dose: 20.0 mg/kg/injection, schedule: Q04DX002 (ip), vehicle: saline 115 % of control | endpoint: mean survival time, dose: 40.0 mg/kg/injection, schedule: Q04DX002 (ip), vehicle: saline 106 % of control

CCSc1nc2ccccc2s1
inactive: endpoint: mean survival time, dose: 100.0 mg/kg/injection, schedule: Q01DX001 (ip), vehicle: other 93 % of control | endpoint: mean survival time, dose: 200.0 mg/kg/injection, schedule: Q01DX001 (ip), vehicle: other 98 % of control

Clc1ccccc1/C=N\N=C(N/N=C\c1ccccc1Cl)N/N=C/c1ccccc1Cl
inactive: endpoint: mean survival time, dose: 15.0 mg/kg/injection, schedule: Q01DX Z (ip), vehicle: carboxymethylcellulose (CMC) 103 % of control | endpoint: mean survival time, dose: 30.0 mg/kg/injection, schedule: Q01DX Z (ip), vehicle: carboxymethylcellulose (CMC) 97 % of control | endpoint: mean survival time, dose: 60.0 mg/kg/injection, schedule: Q01DX Z (ip), vehicle: carboxymethylcellulose (CMC) 98 % of control | endpoint: mean survival time, dose: 120.0 mg/kg/injection, schedule: Q01DX Z (ip), vehicle: carboxymethylcellulose (CMC) 97 % of control | endpoint: mean survival time, dose: 150.0 mg/kg/injection, schedule: Q01DX Z (oral), vehicle: carboxymethylcellulose (CMC) 101 % of control | endpoint: mean survival time, dose: 300.0 mg/kg/injection, schedule: Q01DX Z (oral), vehicle: carboxymethylcellulose (CMC) 101 % of control | endpoint: mean survival time, dose: 600.0 mg/kg/injection, schedule: Q01DX Z (oral), vehicle: carboxymethylcellulose (CMC) 101 % of control | endpoint: mean survival time, dose: 1200.0 mg/kg/injection, schedule: Q01DX Z (oral), vehicle: carboxymethylcellulose (CMC) 100 % of control

Cc1nc(CN(C)C)c2cnccn12
inactive: endpoint: mean survival time, dose: 25.0 mg/kg/injection, schedule: Q01DX009 (ip), vehicle: saline 109 % of control | endpoint: mean survival time, dose: 50.0 mg/kg/injection, schedule: Q01DX009 (ip), vehicle: saline 113 % of control | endpoint: mean survival time, dose: 100.0 mg/kg/injection, schedule: Q04DX003 (ip), vehicle: saline 98 % of control

CCOC(=O)c1ccc(NC(=O)Oc2ccc(C(=O)OC)cc2)cc1
inactive: [8] 102 % of control | [10] 95 % of control | [12] 100 % of control

O=C(NO)c1ccc([N+](=O)[O-])cc1
inactive: [8] 92 % of control | endpoint: mean survival time, dose: 180.0 mg/kg/injection, schedule: Q01DX015 (ip), vehicle: water 101 % of control | [10] 103 % of control | endpoint: mean survival time, dose: 270.0 mg/kg/injection, schedule: Q01DX015 (ip), vehicle: water 107 % of control and 117 % of control and 119 % of control | endpoint: mean survival time, dose: 400.0 mg/kg/injection, schedule: Q01DX001 (ip), vehicle: water 97 % of control | [12] 109 % of control | endpoint: mean survival time, dose: 600.0 mg/kg/injection, schedule: Q01DX001 (ip), vehicle: water 97 % of control

Cc1cc(=O)[nH]c(N=Nc2c(O)[nH]c3ccccc23)n1
inactive: [4] 98 % of control | [5] 93 % of control | [6] 88 % of control
